Data published in US20190364896A1, “SYNERGISTIC WEED CONTROL FROM APPLICATIONS OF PYRIDINE CARBOXYLIC ACID HERBICIDES AND ALS INHIBITORS” (Dow AgroSciences LLC, priority 2014, published 2019).
Like-named read-outs stand apart in the source and are kept apart here.

Assays:
[1] = test system: wild pansy (Viola tricolor, VIOTR); assay: Postemergence herbicidal activity, greenhouse trial (visual injury 0-100%); format: in vivo; details: Viola tricolor, post-emergence, read-out: % visual injury Obs
Summary of the method: (§1)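 Seedlings were raised 7-36 d in a greenhouse, then treated postemergence at the second or third true leaf stage. Mixtures were applied overhead at 187 L/ha, and plants were sub-irrigated to avoid wash-off. Injury was rated visually 20-22 d later.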

[2] = test system: winter rape (Brassica napus, BRSNW); assay: as above; format: in vivo
[3] = test system: sunflower (Helianthus annuus, HELAN); assay: as above; format: in vivo
[4] = test system: brown mustard (Brassica juncea, BRSJU); assay: as above; format: in vivo; details: bensulfuron 17.5 g ai/ha
[5] = test system: nutsedge (Cyperus esculentus, CYPES); assay: as above; format: in vivo; details: Cyperus, post-emergence, read-out: % visual injury Obs
Summary of the method: (§2)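 Greenhouse-grown plants at the second to third true leaf stage were sprayed with two-way mixtures in 1.5% v/v Agri-dex crop oil concentrate at 187 L/ha; rates in g ae/ha for component (a) and g ai/ha for component (b). Injury scored visually 0–100% versus solvent-blank controls after 20–22 d, with expected mixture effects from Colby's equation.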

[6] = test system: poinsettia (Euphorbia heterophylla, EPHHL); assay: as above; format: in vivo
Summary of the method: as §2

[7] = test system: winter wheat (Triticum aestivum, TRZAW); assay: Postemergence crop injury (phytotoxicity), greenhouse trial (visual injury 0-100%)
Method: (§3) Seeds of the desired test plant species were planted in Sun Gro MetroMix® 306 planting mixture, which typically has a pH of 6.0 to 6.8 and an organic matter content of about 30 percent, in plastic pots with a surface area of 103.2 square centimeters (cm^2). […] The plants were grown for 7-36 days (d) in a greenhouse with an approximate 14-hour (h) photoperiod which was maintained at about 23° C. during the day and 22° C. during the night. Nutrients and water were added on a regular basis and supplemental lighting was provided with overhead metal halide 1000-Watt lamps as necessary. The plants were employed for testing when they reached the second or third true leaf stage.
(§4) Weighed amounts of technical material were dissolved in a volume of 97:3 volume per volume (v/v) acetone/dimethyl sulfoxide (DMSO) to stock solutions. […] The concentrated stock solutions were diluted with an aqueous mixture of 1.5% v/v of Agri-dex crop oil concentrate to provide the appropriate application rates. Compound requirements are based upon a 12 milliliter (mL) application volume at a rate of 187 liters per hectare (L/ha). Spray solutions of the experimental compound mixtures were prepared by adding the stock solutions to the appropriate amount of dilution solution to form a 12 mL spray solution in two-way combinations. Formulated compounds were applied to the plant material with an overhead Mandel track sprayer equipped with 8002E nozzles calibrated to deliver 187 L/ha over an application area of 0.503 square meters (m^2) at a spray height of 18 inches (43 centimeters (cm)) above average plant canopy. Control plants were sprayed in the same manner with the solvent blank. Application rates for component (a) are in g ae/ha, and application rates for component (b) are in g ai/ha.
(§5) The treated plants and control plants were placed in a greenhouse as described above and watered by sub-irrigation to prevent wash-off of the test compounds. After 20-22 d, the condition of the test plants as compared with that of the control plants was determined visually and scored on a scale of 0 to 100 percent where 0 corresponds to no injury and 100 corresponds to complete kill. The condition of the test plants was compared with that of the control plants as determined visually and scored on a scale of 0 to 100 percent, where 0 corresponds to no injury and 100 corresponds to complete kill. Colby's equation was used to determine the herbicidal effects expected from the mixtures.
Compound 2 was combined with florasulam and applied to winter wheat (TRZAW) and the phytotoxicity of the herbicidal composition was measured. In addition, the efficacy of the herbicidal composition on poinsettia (Euphorbia heterophylla, EPHHL) and […] (Cyperus esculentus, CYPES) was evaluated.
Weighed amounts of technical or formulated material (emulsifiable concentrate (EC) or soluble concentrate (SL)) were dissolved in a volume of 97:3 volume per volume (v/v) acetone/dimethyl sulfoxide (DMSO) to stock solutions. […] The concentrated stock solutions were diluted with an aqueous mixture of 1.5% v/v of Agri-dex crop oil concentrate to provide the appropriate application rates. Compound requirements are based upon a 12 milliliter (mL) application volume at a rate of 187 liters per hectare (L/ha). Spray solutions of the experimental compound mixtures were prepared by adding the stock solutions to the appropriate amount of dilution solution to form a 12 mL spray solution in two-way combinations. […]

[8] = test system: kochia (Kochia scoparia, KCHSC); assay: Postemergence herbicidal activity, greenhouse trial (visual injury 0-100%); format: in vivo
Summary of the method: as §1

[9] = test system: pigweed (Amaranthus retroflexus, AMARE); assay: as above; format: in vivo
Summary of the method: as §1

[10] = test system: common lambsquarters (Chenopodium album L., CHEAL); assay: as above; format: in vivo
Summary of the method: as §1

[11] = test system: ivyleaf morning-glory (Ipomoea hederacea, IPOHE); assay: as above; format: in vivo
Summary of the method: as §1

[12] = test system: common rice (Oryza sativa, ORYSA); assay: Postemergence crop injury (phytotoxicity), greenhouse trial (visual injury 0-100%)
Method: as §3
(§6) Weighed amounts of technical or formulated material (emulsifiable concentrate (EC) or soluble concentrate (SL)) were dissolved in a volume of 97:3 volume per volume (v/v) acetone/dimethyl sulfoxide (DMSO) to stock solutions. […] The concentrated stock solutions were diluted with an aqueous mixture of 1.5% v/v of Agri-dex crop oil concentrate to provide the appropriate application rates. Compound requirements are based upon a 12 milliliter (mL) application volume at a rate of 187 liters per hectare (L/ha). Spray solutions of the experimental compound mixtures were prepared by adding the stock solutions to the appropriate amount of dilution solution to form a 12 mL spray solution in two-way combinations. Formulated compounds were applied to the plant material with an overhead Mandel track sprayer equipped with 8002E nozzles calibrated to deliver 187 L/ha over an application area of 0.503 square meters (m^2) at a spray height of 18 inches (43 centimeters (cm)) above average plant canopy. Control plants were sprayed in the same manner with the solvent blank. Application rates for component (a) are in g ae/ha, and application rates for component (b) are in g ai/ha.
as §5
(§7) Compound 1 was formulated as an EC and was combined with florasulam, cloransulam, diclosulam, flumetsulam, penoxsulam, or pyroxsulam. Compound 2 was formulated as an EC and was combined with florasulam or pyroxsulam. The mixtures were applied to winter wheat (TRZAW), common rice (ORYSA), maize (ZEAMX), and the phytotoxicity of the herbicidal compositions was measured. In addition, the efficacy of the herbicidal compositions on blackgrass (Alopecurus myosuroides, ALOMY), pigweed (Amaranthus retrollexus, AMARE), wild oat (Avena fatua, AVEFA), common lambsquarters (Chenopodium album L., CHEAL), thistle (Cirsium arvense CIRAR), nutsedge (Cyperus esculentus, CYPES), barnyardgrass (Echinochloa crus-galli, ECHCG), poinsettia (Euphorbia heterophylla, EPHHL), ivyleaf morning-glory (Ipomoea hederacea, IPOHE), kochia (Kochia scoparia, KCHSC), wild buckwheat (Polygonum convolvulus, POLCO), grain sorghum (Sorghum vulgare, SORVU), chickweed (Stellaria media, STEME), wild pansy (Viola tricolor, VIOTR), was evaluated.
(§8) Weighed amounts of technical material were dissolved in a volume of 97:3 volume per volume (v/v) acetone/dimethyl sulfoxide (DMSO) to stock solutions. […] The concentrated stock solutions were diluted with an aqueous mixture of 1.5% v/v of Agri-dex crop oil concentrate to provide the appropriate application rates. Compound requirements are based upon a 12 milliliter (mL) application volume at a rate of 187 liters per hectare (L/ha). […]

[13] = test system: maize (Zea mays, ZEAMX); assay: as above
Method: as §3, §6, §5, §7, §8

[14] = test system: thistle (Cirsium arvense, CIRAR); assay: Postemergence herbicidal activity, greenhouse trial (visual injury 0-100%); format: in vivo; details: Cirsium arvense, post-emergence, read-out: % visual injury Obs
Summary of the method: as §1

[15] = test system: wild buckwheat (Polygonum convolvulus, POLCO); assay: as above; format: in vivo; details: Fallopia convolvulus, post-emergence, 11.2 g ai/ha; read-out: % visual injury Obs
Summary of the method: as §1

[16] = test system: spring rape (Brassica napus, BRSNN); assay: as above; format: in vivo; details: 11.2 g ai/ha
[17] = test system: turnip (Brassica rapa, BRSRR); assay: as above; format: in vivo; details: 11.2 g ai/ha
Method: as §3, §4, §5
(§9) Compound 1 was formulated as an EC and was combined with imazamox, imazamethabenz, imazapic, imazapyr or imazethapyr. The mixtures were applied to winter wheat (TRZAW) and/or maize (ZEAMX), and the phytotoxicity of the herbicidal compositions was measured. In addition, the efficacy of the herbicidal compositions on blackgrass (Alopecurus myosuroides, ALOMY), wild oat (Avena fatua, AVEFA), winter rape (Brassica napus, BRSNW), spring rape (Brassica napus, BRSNN), turnip (Brassica rapa, BRSRR), thistle (Cirsium arvense, CIRAR), large crabgrass (Digitaria sanguinalis, DIGSA), pigweed (Amaranthus retrollexus, AMARE), common lambsquarters (Chenopodium album L., CHEAL), poinsettia (Euphorbia heterophylla, EPHHL), ivyleaf morning-glory (Ipomoea hederacea, IPOHE), kochia (Kochia scoparia, KCHSC), wild buckwheat (Polygonum convolvulus, POLCO), grain sorghum (Sorghum vulgare, SORVU), chickweed (Stellaria media, STEME), wild pansy (Viola tricolor, VIOTR), sunflower (Helianthus annuus, HELAN), giant foxtail (Setaria faberi, SETFA), soybean (Glycine max, GLXMA), rutabaga (Brassica napus var. napobrassica, BRSNA) and barnyardgrass (Echinochloa crus-galli, ECHCG) was evaluated.

[18] = test system: barnyardgrass (Echinochloa crus-galli, ECHCG); assay: as above; format: in vivo
Summary of the method: as §1

[19] = test system: blackgrass (Alopecurus myosuroides, ALOMY); assay: as above; format: in vivo; details: 17.5 g ai/ha
Summary of the method: as §1

[20] = test system: wild oat (Avena fatua, AVEFA); assay: as above; format: in vivo
Summary of the method: as §1

[21] = test system: rutabaga (Brassica napus var. napobrassica, BRSNA); assay: as above; format: in vivo; details: 17.5 g ai/ha
Method: as §3, §4, §5, §9

[22] = test system: large crabgrass (Digitaria sanguinalis, DIGSA); assay: as above; format: in vivo; details: 17.5 g ai/ha
[23] = test system: chickweed (Stellaria media, STEME); assay: as above; format: in vivo; details: 100 g ai/ha
Summary of the method: as §1

[24] = test system: grain sorghum (Sorghum vulgare, SORVU); assay: as above; format: in vivo; details: 100 g ai/ha
Summary of the method: as §1

[25] = test system: soybean (Glycine max, GLXMA); assay: as above; format: in vivo; details: 100 g ai/ha
Method: as §3, §4, §5, §9

COC(=O)c1ccccc1CS(=O)(=O)NC(=O)Nc1nc(OC)cc(OC)n1
pest or weed control at 17.5 g/ha ([1]; VIOTR, bensulfuron 17.5 g ai/ha): 0%
% visual injury Obs ([2]; BRSNW, bensulfuron 17.5 g ai/ha): 70%
% visual injury Obs ([3]; HELAN, bensulfuron 17.5 g ai/ha): 10%
% visual injury Obs [4]: 93%

COc1ncc(F)c2nc(S(=O)(=O)Nc3c(F)cccc3F)nn12 [Florasulam, florasulam]
pest or weed control at 1.25 g/ha [5]: 15%
pest or weed control at 2.5 g/ha [5]: 75%
pest or weed control at 1.25 g/ha ([6]; Euphorbia heterophylla, post-emergence, read-out: % visual injury Obs): 0%
% visual injury Obs ([7]; 1.25 g ai/ha): 0%
% visual injury Obs ([7]; 2.5 g ai/ha): 0%
pest or weed control at 2.5 g/ha ([8]; Bassia scoparia, post-emergence, read-out: % visual injury Obs): 60%
pest or weed control at 1.25 g/ha ([9]; Amaranthus retroflexus, post-emergence, read-out: % visual injury Obs): 75%
pest or weed control at 1.25 g/ha ([10]; Chenopodium album, post-emergence, read-out: % visual injury Obs): 0%
pest or weed control at 1.25 g/ha ([11]; Ipomoea hederacea, post-emergence, read-out: % visual injury Obs): 98%
% visual injury Obs ([12]; 1.25 g ai/ha): 0%
% visual injury Obs ([12]; 2.5 g ai/ha): 0%
% visual injury Obs ([13]; 1.25 g ai/ha): 0%
% visual injury Obs ([13]; 2.5 g ai/ha): 0%

COCc1cnc(C2=NC(C)(C(C)C)C(=O)N2)c(C(=O)O)c1 (centres unmarked) [Imazamox, imazamox]
pest or weed control at 11.2 g/ha ([14]; 11.2 g ai/ha): 70%
pest or weed control at 11.2 g/ha [15]: 65%
% visual injury Obs [16]: 75%
% visual injury Obs [17]: 70%

CCc1cnc(C2=NC(C)(C(C)C)C(=O)N2)c(C(=O)O)c1 (centres unmarked) [Imazethapyr, imazethapyr]
pest or weed control at 17.5 g/ha ([14]; 17.5 g ai/ha): 30%
pest or weed control at 17.5 g/ha ([18]; Echinochloa crus-galli, post-emergence, 17.5 g ai/ha, read-out: % visual injury Obs): 70%
% visual injury Obs [19]: 10%
% visual injury Obs ([20]; 17.5 g ai/ha): 10%
pest or weed control at 17.5 g/ha ([1]; 17.5 g ai/ha): 5%
% visual injury Obs [21]: 20%
% visual injury Obs ([2]; 17.5 g ai/ha): 75%
% visual injury Obs [22]: 30%

imazamethabenz
% visual injury Obs ([6]; 100 g ai/ha): 50%
% visual injury Obs ([8]; 100 g ai/ha): 0%
% visual injury Obs ([9]; 100 g ai/ha): 0%
% visual injury Obs ([18]; 100 g ai/ha): 5%
% visual injury Obs [23]: 10%
% visual injury Obs ([10]; 100 g ai/ha): 20%
% visual injury Obs [24]: 0%
% visual injury Obs ([11]; 100 g ai/ha): 0%
% visual injury Obs ([20]; 100 g ai/ha): 20%
% visual injury Obs [25]: 30%
% visual injury Obs ([2]; 100 g ai/ha): 65%
% visual injury Obs ([3]; 100 g ai/ha): 5%
